Assays:
Assay type in all cases: cell-based
K-562 = assay: NCI one-dose screen; details: Homo sapiens, K562; K-562, 10 µM; read-out: Growth Percent
Description: (§1) For screening of anticancer properties, all the developed compounds were chosen by the (NCI) for in-vitro antitumor evaluation. The assay was carried out using 59 human cancer cell lines obtained from nine tumour subpanels (breast, ovarian, melanoma, leukaemia, renal, CNS, lung, prostate, and colon cancer cell lines). Compounds were assessed at a 10 µM concentration. […] Also, hybrids 4a, 4b, 4e, 4i and 4j produced significant anti-proliferative effect in several cancer cells, particularly in leukaemia (RPMI-8226) and colon (HCT116) cells with growth percent of 47.87, −14.59, −24.56, −24.42, −15.84, −9.74, −53.36, −10.26, −31.29, and −39.51%, respectively.
(§2) The method description for NCI anticancer screening is provided in detail in the standard NCI-60 testing protocol.

HS 578T = assay: NCI one-dose screen; details: Homo sapiens, read-out: Growth Percent
Description: as §1, §2

OVCAR-8 = assay: NCI one-dose screen; details: Homo sapiens; OVCAR-8, 10 µM; read-out: Growth Percent
Description: as §1, §2

SNB-19 = assay: NCI one-dose screen; details: Homo sapiens; SNB-19, 10 µM; read-out: Growth Percent
Description: as §1, §2

OVCAR-4 = assay: NCI one-dose screen; details: Homo sapiens; OVCAR-4, 10 µM; read-out: Growth Percent
Description: as §1, §2

OVCAR-5 = assay: NCI one-dose screen; details: Homo sapiens; OVCAR-5, 10 µM; read-out: Growth Percent
Description: as §1, §2

DU-145 = assay: NCI one-dose screen; details: Homo sapiens; DU-145, 10 µM; read-out: Growth Percent
Description: as §1, §2

SN12C = assay: NCI one-dose screen; details: Homo sapiens, read-out: Growth Percent
Description: as §1, §2

CAKI-1 = assay: NCI one-dose screen; details: Homo sapiens; CAKI-1, 10 µM; read-out: Growth Percent
Description: as §1, §2

NCI-H522 = assay: NCI one-dose screen; details: Homo sapiens; NCI-H522, 10 µM; read-out: Growth Percent
Description: as §1, §2

SNB-75 = assay: NCI one-dose screen; details: Homo sapiens; SNB-75, 10 µM; read-out: Growth Percent
Description: as §1, §2

UACC-62 = assay: NCI one-dose screen; details: Homo sapiens; UACC-62, 10 µM; read-out: Growth Percent
Description: as §1, §2

HCT-15 = assay: NCI one-dose screen; details: Homo sapiens; HCT-15, 10 µM; read-out: Growth Percent
Description: as §1, §2

HCC-2998 = assay: NCI one-dose screen; details: Homo sapiens; HCC-2998, 10 µM; read-out: Growth Percent
Description: as §1, §2

RXF 393 = assay: NCI one-dose screen; details: Homo sapiens; RXF 393, 10 µM; read-out: Growth Percent
Description: as §1, §2

SK-OV-3 = assay: NCI one-dose screen; details: Homo sapiens; SK-OV-3, 10 µM; read-out: Growth Percent
Description: as §1, §2

A549/ATCC = assay: NCI one-dose screen; details: Homo sapiens, read-out: Growth Percent
Description: as §1, §2

HOP-92 = assay: NCI one-dose screen; details: Homo sapiens; HOP-92, 10 µM; read-out: Growth Percent
Description: as §1, §2

NCI-H23 = assay: NCI one-dose screen; details: Homo sapiens; NCI-H23, 10 µM; read-out: Growth Percent
Description: as §1, §2

HOP-62 = assay: NCI one-dose screen; details: Homo sapiens; HOP-62, 10 µM; read-out: Growth Percent
Description: as §1, §2

UACC-257 = assay: NCI one-dose screen; details: Homo sapiens; UACC-257, 10 µM; read-out: Growth Percent
Description: as §1, §2

TK-10 = assay: NCI one-dose screen; details: Homo sapiens; TK-10, 10 µM; read-out: Growth Percent
Description: as §1, §2

IGROV1 = assay: NCI one-dose screen; details: Homo sapiens, IGROV-1; IGROV1, 10 µM; read-out: Growth Percent
Description: as §1, §2

NCI-H460 = assay: NCI one-dose screen; details: Homo sapiens; NCI-H460, 10 µM; read-out: Growth Percent
Description: as §1, §2

SK-MEL-28 = assay: NCI one-dose screen; details: Homo sapiens; SK-MEL-28, 10 µM; read-out: Growth Percent
Description: as §1, §2

OVCAR-3 = assay: NCI one-dose screen; details: Homo sapiens; OVCAR-3, 10 µM; read-out: Growth Percent
Description: as §1, §2

HT29 = assay: NCI one-dose screen; details: Homo sapiens, HT-29; HT29, 10 µM; read-out: Growth Percent
Description: as §1, §2

PC-3 = assay: NCI one-dose screen; details: Homo sapiens; PC-3, 10 µM; read-out: Growth Percent
Description: as §1, §2

EKVX = assay: NCI one-dose screen; details: Homo sapiens, read-out: Growth Percent
Description: as §1, §2

M14 = assay: NCI one-dose screen; details: Homo sapiens; M14, 10 µM; read-out: Growth Percent
Description: as §1, §2

SF-539 = assay: NCI one-dose screen; details: Homo sapiens; SF-539, 10 µM; read-out: Growth Percent
Description: as §1, §2

Caco-2 = assay: MTT assay; details: Homo sapiens; Caco-2, MTT assay, 24 h incubation
Description: (§3) The proliferation of colorectal cancer cells (HCT116, HT29 and Caco-2) was assessed using MTT assay as previously reported. Cells were treated with increasing concentrations of 1, 5, 10, 20, 40, 80 or 100 µM of CP hybrids 4a-j, doxorubicin, or DMSO. See Supplementary Appendix A.

HT-29 = assay: MTT assay; details: Homo sapiens; HT-29, MTT assay, 24 h incubation
Description: as §3

HCT116 = assay: MTT assay; details: Homo sapiens, HCT-116, 24 h incubation
Description: as §3

[1] = tested on: 59 human cancer cell lines; assay: NCI one-dose screen, whole panel; details: Homo sapiens, mean over the panel, read-out: Mean Growth Percent
Description: as §1, §2

SMILES	activity at 10 µM (K-562)	activity at 10 µM (HS 578T)	activity at 10 µM (OVCAR-8)	activity at 10 µM (SNB-19)	activity at 10 µM (OVCAR-4)	activity at 10 µM (OVCAR-5)	activity at 10 µM (DU-145)	activity at 10 µM (SN12C)	activity at 10 µM (CAKI-1)	activity at 10 µM (NCI-H522)	activity at 10 µM (SNB-75)	activity at 10 µM (UACC-62)	activity at 10 µM (HCT-15)	activity at 10 µM (HCC-2998)	activity at 10 µM (RXF 393)	activity at 10 µM (SK-OV-3)	activity at 10 µM (A549/ATCC)	activity at 10 µM (HOP-92)	activity at 10 µM (NCI-H23)	activity at 10 µM (HOP-62)	further results
O=C(/C=C/c1ccccc1)c1ccc(-n2cc(CN3CCN(c4cc5c(cc4F)c(=O)c(C(=O)O)cn5C4CC4)CC3)nn2)cc1 [Compound 4a, (E) 7-(4-((1–(4-Cinnamoylphenyl)-1H-1,2,3-triazol-4-yl)methyl)piperazin-1-yl)-1-cyclopropyl-6-fluoro-4-oxo-1,4-dihydroquinoline-3-carboxylic acid]	101%	80.6%	95.1%	98.2%	102%	103%	104%	103%	87.8%	89.2%	92.7%	90.5%	93.8%	86%	72%	84.9%	89.8%	79.9%	83.5%	78.7%	activity at 10 µM (UACC-257): 96.7%; activity at 10 µM (TK-10): 103%; activity at 10 µM (IGROV1): 75.3%; activity at 10 µM (NCI-H460): 91.2%; activity at 10 µM (SK-MEL-28): 99.3%; activity at 10 µM (OVCAR-3): 90.4%; activity at 10 µM (HT29): 90.8%; activity at 10 µM (PC-3): 83.9%; activity at 10 µM (EKVX): 88.5%; activity at 10 µM (M14): 90.1%; activity at 10 µM (SF-539): 92.6%; IC50 (Caco-2): 8.39 ± 2.46 µM; IC50 (HT-29): 22.4 ± 3.25 µM; IC50 (HCT116): 3.57 ± 0.59 µM; activity at 10 µM [1]: 87.8%
O=C(/C=C/c1cccc(Cl)c1)c1ccc(-n2cc(CN3CCN(c4cc5c(cc4F)c(=O)c(C(=O)O)cn5C4CC4)CC3)nn2)cc1 [Compound 4b, (E)-7-(4-((1–(4-(3-(3-chlorophenyl)acryloyl)phenyl)-1H-1,2,3-triazol-4-yl)methyl)piperazin-1-yl)-1-cyclopropyl-6-fluoro-4-oxo-1,4-dihydroquinoline-3-carboxylic acid]	40.5%	73.7%	42.7%	53.8%	62.9%	84.7%	77.5%	37.6%	52.5%	83.9%	89.2%	61.2%	71.7%	59.3%	70.8%	72.3%	71.6%	79.3%	91.4%	67.7%	activity at 10 µM (UACC-257): 87.7%; activity at 10 µM (TK-10): 84.9%; activity at 10 µM (IGROV1): 51.8%; activity at 10 µM (NCI-H460): 66.7%; activity at 10 µM (SK-MEL-28): 95.8%; activity at 10 µM (OVCAR-3): 57.3%; activity at 10 µM (HT29): 53.3%; activity at 10 µM (PC-3): 74%; activity at 10 µM (EKVX): 85%; activity at 10 µM (M14): 79%; activity at 10 µM (SF-539): 60.1%; IC50 (Caco-2): 24.4 ± 3.07 µM; IC50 (HT-29): 42.9 ± 5.14 µM; IC50 (HCT116): 4.81 ± 1.21 µM; activity at 10 µM [1]: 65%
O=C(/C=C/c1ccc(Cl)cc1)c1ccc(-n2cc(CN3CCN(c4cc5c(cc4F)c(=O)c(C(=O)O)cn5C4CC4)CC3)nn2)cc1 [Compound 4c, (E)-7-(4-((1-(4-(3-(4-chlorophenyl)acryloyl)phenyl)-1H-1,2,3-triazol-4-yl)methyl)piperazin-1-yl)-1-cyclopropyl-6-fluoro-4-oxo-1,4-dihydroquinoline-3-carboxylic acid]	56%	67.4%	62%	72%	89.7%	92.2%	76.3%	45.8%	61.4%	80.1%	72.3%	73.8%	91.6%	88.3%	58.3%	80%	88.9%	79.6%	79.7%	79.6%	activity at 10 µM (UACC-257): 91%; activity at 10 µM (TK-10): 83.3%; activity at 10 µM (IGROV1): 84%; activity at 10 µM (NCI-H460): 76.1%; activity at 10 µM (SK-MEL-28): 88.2%; activity at 10 µM (OVCAR-3): 91.5%; activity at 10 µM (HT29): 79.2%; activity at 10 µM (PC-3): 79.3%; activity at 10 µM (EKVX): 94%; activity at 10 µM (M14): 84.4%; activity at 10 µM (SF-539): 69%; IC50 (Caco-2): 11.7 ± 2.95 µM; IC50 (HT-29): 15.3 ± 1.54 µM; IC50 (HCT116): 6.45 ± 1.84 µM; activity at 10 µM [1]: 73.9%
O=C(/C=C/c1ccc(Br)cc1)c1ccc(-n2cc(CN3CCN(c4cc5c(cc4F)c(=O)c(C(=O)O)cn5C4CC4)CC3)nn2)cc1 [Compound 4d, (E)-7-(4-((1-(4-(3-(4-bromophenyl)acryloyl)phenyl)-1H-1,2,3-triazol-4-yl)methyl)piperazin-1-yl)-1-cyclopropyl-6-fluoro-4-oxo-1,4-dihydroquinoline-3-carboxylic acid]	60.7%	71.2%	80.7%	76.7%	96.7%	92.7%	92.3%	58.8%	68.7%	88%	85.7%	72.8%	90.6%	83.3%	55.7%	79%	90.5%	88%	77.6%	85.4%	activity at 10 µM (UACC-257): 90.1%; activity at 10 µM (TK-10): 97.8%; activity at 10 µM (IGROV1): 79.4%; activity at 10 µM (NCI-H460): 85.9%; activity at 10 µM (SK-MEL-28): 92%; activity at 10 µM (OVCAR-3): 84.9%; activity at 10 µM (HT29): 99.2%; activity at 10 µM (PC-3): 84.7%; activity at 10 µM (EKVX): 80.8%; activity at 10 µM (M14): 88.1%; activity at 10 µM (SF-539): 82.5%; IC50 (Caco-2): 7.19 ± 1.69 µM; IC50 (HT-29): 62.5 ± 7.1 µM; IC50 (HCT116): 8.67 ± 2.15 µM; activity at 10 µM [1]: 77.4%
